Laboratory results from patent publication US20230264009A1, “DISINFECTING CAP KIT FOR LUER ACCESS DEVICES” (SterileCare Inc., priority 2022, published 2023).

Experiments:
[1] = system: Staphylococcus aureus ON89 biofilm; experiment: FBEC index, checkerboard dilution on biofilms; format: cell-based; conditions: S. aureus ON89 biofilm
Description: (§3) In step (4), microtiter plates are incubated at 37° C. for 24 h. then (6), after incubation, the bacterial and fungal cells were dislodged from the pegs into the recovery medium described above.
(§4) Three 10-µL aliquots, for a total of 30 µL from each well of recovery medium, were spotted on MH agar plates and incubated for 24 h at 37° C. […] The FBEC determination is a modification of the FICI.

MRSA ON184 [2] = experiment: MIC, micro broth dilution; format: cell-based, Staphylococcus aureus; conditions: alone, 24 h
Description: (§1) An assay was made using a minimum inhibitory concentration (MIC) and minimum bactericidal concentration (MBC) and minimum fungicidal concentration (MFC) determination. The MIC was determined by the micro broth dilution method in 96-well plates. Serial two-fold dilutions of tetrasodium EDTA (from 2% to 0.015%), ethanol (from 50% to 0.1%) and chlorhexidine HCl (from 100 µg/mL to 0.025 µg/mL) were prepared in MH broth with a final volume of 90 µL per well. A 10 µL containing 1 × 10^5 bacterial cells or 2 × 10^3 fungal cells were added to each well. The inoculated plates were covered with a lid, sealed with Parafilm, and incubated for 24 h at 37° C. with slight rocking on a tilting platform shaker. After incubation, the optical density at 600 nm (OD 600 ) of the cultures in each well was measured using an xMark™ Microplate Absorbance Spectrophotometer (Bio-Rad). […] MBCs and MFCs were determined by transferring 100 µL from each well with no apparent growth onto appropriate agar plates, followed by incubation for 24 h at 37° C.

MRSA ON184 biofilm = experiment: FBEC index, checkerboard dilution on biofilms; format: cell-based, Staphylococcus aureus
Description: as §3, §4

E. coli SK2 = experiment: Checkerboard titration, FMCI; format: cell-based, Escherichia coli
Description: as §1
(§2) A fourth composition and solution included tetrasodium EDTA with ethanol or chlorhexidine HCl. This fourth composition and solution were created using checkerboard titration methods using micro broth dilution in 96-well microtiter plates. The concentrations of antimicrobials used were based on previously determined MIC values. Briefly, 200 µL of two-fold dilutions of tetrasodium EDTA and ethanol or chlorhexidine HCl were prepared in MH or MH II broth with standardized cell suspension. […] Microtiter plates were incubated at 37° C. for 24 h, and the results were analyzed. Each test was performed in duplicate and included a growth control without adding any antimicrobials.

[3] = system: Proteus mirabilis ON153 biofilm; experiment: FBEC index, checkerboard dilution on biofilms; format: cell-based; conditions: P. mirabilis ON153 biofilm
Description: as §3, §4

[4] = system: Escherichia coli SK2 biofilm; experiment: FBEC index, checkerboard dilution on biofilms; format: cell-based; conditions: E. coli SK2 biofilm
Description: as §3, §4

MRSA ON184 [5] = experiment: Checkerboard titration, FMCI; format: cell-based, Staphylococcus aureus
Description: as §1, §2

[6] = system: 48-h old biofilms of test organisms; experiment: Rapid biofilm eradication, 2 h exposure; format: cell-based; conditions: alone at the MBEC
Description: Determining rapid biofilm eradication by tetrasodium EDTA, ethanol, and chlorhexidine HCl alone and in combination was performed. After biofilm formation, control pegs (n = 6) were removed and analyzed to determine the starting biofilm cell numbers via the drop dilution method. The 48-h old biofilms on the pegs were exposed to different concentrations of test antimicrobials, dissolved in an appropriate growth medium, for two h to evaluate their efficacy alone and in combination. Antimicrobial solutions tested against each organism included each agent alone at the MBEC, double combinations at the FBEC, and triple combinations ranging from 5 to 20% ethanol, 2.5-5 µg/mL chlorhexidine HCl and 1- 3% tetrasodium EDTA. Following treatment, pegs were washed twice with sterile PBS, and the biofilm cells were dislodged into recovery medium and enumerated as described above.
The method for rapid biofilm eradication ability of test antimicrobials alone and in combination against 48-h-old biofilms within two h exposure time included (1) choosing different concentrations of test antimicrobials to assess their potency in eradicating preformed biofilms of study organisms within two h. Then (2) the quantitative recovery from biofilms following exposure to the antimicrobial solutions for bacterial strains (FIGS. 6A-6C) and fungal strains (FIG. 7) was evaluated.

C. albicans ON47 = experiment: Checkerboard titration, FICI; format: cell-based, Candida albicans
Description: as §2

Proteus mirabilis ON153 [7] = experiment: Checkerboard titration, FMCI; format: cell-based; conditions: P. mirabilis ON153
Description: as §1, §2

Serratia marcescens SK2 [8] = experiment: Checkerboard titration, FMCI; format: cell-based; conditions: S. marcescens SK2
Description: as §1, §2

Escherichia coli ON29 [9] = experiment: Checkerboard titration, FMCI; format: cell-based; conditions: E. coli ON29
Description: as §1, §2

[10] = system: Stenotrophomonas maltophilia ON17; experiment: Checkerboard titration, FMCI; format: cell-based; conditions: S. maltophilia ON17
Description: as §1, §2

[11] = system: Pseudomonas aeruginosa SK1; experiment: Checkerboard titration, FMCI; format: cell-based; conditions: P. aeruginosa SK1
Description: as §1, §2

Proteus mirabilis ON153 [12] = experiment: MBC/MFC determination; format: cell-based; conditions: alone; P. mirabilis ON153
Description: as §1

Serratia marcescens SK2 [13] = experiment: MBC/MFC determination; format: cell-based; conditions: alone; S. marcescens SK2
Description: as §1

Candida albicans SK4b = experiment: MBC/MFC determination; format: cell-based; conditions: alone; C. albicans SK4b
Description: as §1

Escherichia coli ON29 [14] = experiment: MBC/MFC determination; format: cell-based; conditions: alone; E. coli ON29
Description: as §1

[15] = system: Staphylococcus epidermidis ON170; experiment: MBC/MFC determination; format: cell-based; conditions: alone; S. epidermidis ON170
Description: as §1

[16] = system: Staphylococcus aureus ON89; experiment: MBC/MFC determination; format: cell-based; conditions: alone; S. aureus ON89
Description: as §1

[17] = system: Stenotrophomonas maltophilia ON17; experiment: MBC/MFC determination; format: cell-based; conditions: alone; S. maltophilia ON17
Description: as §1

[18] = system: Pseudomonas aeruginosa SK1; experiment: MBC/MFC determination; format: cell-based; conditions: alone; P. aeruginosa SK1
Description: as §1

[19] = tetrasodium EDTA + chlorhexidine HCl

Compound: O=C([O-])CN(CCN(CC(=O)[O-])CC(=O)[O-])CC(=O)[O-].[Na+].[Na+].[Na+].[Na+] [EDTA, tetrasodium EDTA]
- FBEC (concentration in combination) [1, 19]: 0.125 % w/v
- FBEC (concentration in combination) ([1]; tetrasodium EDTA + ethanol): 0.063 % w/v
- MIC (MRSA ON184 [2]): 0.063 % w/v
- FBEC (concentration in combination) (MRSA ON184 biofilm; [19]): 0.031 % w/v
- FBEC (concentration in combination) (MRSA ON184 biofilm; tetrasodium EDTA + ethanol): 0.063 % w/v
- Concentration in combination giving FMCI (E. coli SK2; [19]): 0.015 % w/v
- Concentration in combination giving FMCI (E. coli SK2; tetrasodium EDTA + ethanol): 0.25 % w/v
- FBEC (concentration in combination) [3, 19]: 0.125 % w/v
- FBEC (concentration in combination) ([3]; tetrasodium EDTA + ethanol): 0.125 % w/v
- FBEC (concentration in combination) [4, 19]: 0.031 % w/v
- FBEC (concentration in combination) ([4]; tetrasodium EDTA + ethanol): 0.125 % w/v
- Concentration in combination giving FMCI (MRSA ON184 [5]; [19]): 0.125 % w/v
- Concentration in combination giving FMCI (MRSA ON184 [5]; tetrasodium EDTA + ethanol): 0.031 % w/v
- Eradication of preformed biofilms [6]: failed to eradicate
- Concentration in combination giving FICI (C. albicans ON47; [19]): 0.125 % w/v
- Concentration in combination giving FICI (C. albicans ON47; tetrasodium EDTA + ethanol): 0.25 % w/v
- Concentration in combination giving FMCI (Proteus mirabilis ON153 [7]; [19]): 0.125 % w/v
- Concentration in combination giving FMCI (Proteus mirabilis ON153 [7]; tetrasodium EDTA + ethanol): 0.063 % w/v
- Concentration in combination giving FMCI (Serratia marcescens SK2 [8]; [19]): 0.125 % w/v
- Concentration in combination giving FMCI (Serratia marcescens SK2 [8]; tetrasodium EDTA + ethanol): 0.25 % w/v
- Concentration in combination giving FMCI (Escherichia coli ON29 [9]; [19]): 0.008 % w/v
- Concentration in combination giving FMCI (Escherichia coli ON29 [9]; tetrasodium EDTA + ethanol): 0.25 % w/v
- Concentration in combination giving FMCI [10, 19]: 0.031 % w/v
- Concentration in combination giving FMCI ([10]; tetrasodium EDTA + ethanol): 0.125 % w/v
- Concentration in combination giving FMCI [11, 19]: 0.031 % w/v
- Concentration in combination giving FMCI ([11]; tetrasodium EDTA + ethanol): 0.031 % w/v
- MBC/MFC (Proteus mirabilis ON153 [12]): 2 % w/v
- MBC/MFC (Serratia marcescens SK2 [13]): 2 % w/v
- MBC/MFC (Candida albicans SK4b): 1 % w/v
- MBC/MFC (Escherichia coli ON29 [14]): 1 % w/v
- MBC/MFC [15]: 0.5 % w/v
- MBC/MFC [16]: 1 % w/v
- MBC/MFC [17]: 1 % w/v
- MBC/MFC [18]: 1 % w/v
